According to PubChem BioAssay (NCI):
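All cell lines were grown in 96-well plates and treated with compound for 48 hours. At the TGI there is no net growth.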

Columns and labels:
Experiment in all cases: growth of human tumour cells (NCI), 48 h
HOP-92 NSCLC = tested on: HOP-92 NSCLC
SR leukemia = tested on: SR leukemia
RPMI-8226 leukemia = tested on: RPMI-8226 leukemia
SK-OV-3 ovarian = tested on: SK-OV-3 ovarian
HL-60(TB) leukemia = tested on: HL-60(TB) leukemia
A498 renal = tested on: A498 renal
HOP-62 NSCLC = tested on: HOP-62 NSCLC
UACC-62 melanoma = tested on: UACC-62 melanoma
U251 CNS = tested on: U251 CNS
CAKI-1 renal = tested on: CAKI-1 renal
KM12 colon = tested on: KM12 colon
NCI-H460 lung = tested on: NCI-H460 lung
SNB-19 CNS = tested on: SNB-19 CNS
UO-31 renal = tested on: UO-31 renal
SN12C renal = tested on: SN12C renal
NCI-H226 lung = tested on: NCI-H226 lung
NCI-H522 lung = tested on: NCI-H522 lung
TK-10 renal = tested on: TK-10 renal
OVCAR-4 ovarian = tested on: OVCAR-4 ovarian
A549 NSCLC = tested on: A549 NSCLC
SNB-78 CNS = tested on: SNB-78 CNS
MOLT-4 leukemia = tested on: MOLT-4 leukemia
786-0 renal = tested on: 786-0 renal
NCI-H23 lung = tested on: NCI-H23 lung
RXF-631 renal = tested on: RXF-631 renal
HCT-116 colon = tested on: HCT-116 colon
SF-295 CNS = tested on: SF-295 CNS
M14 melanoma = tested on: M14 melanoma
LOX IMVI melanoma = tested on: LOX IMVI melanoma
K-562 leukemia = tested on: K-562 leukemia
OVCAR-5 ovarian = tested on: OVCAR-5 ovarian
HT29 colon = tested on: HT29 colon
OVCAR-3 ovarian = tested on: OVCAR-3 ovarian
HOP-18 NSCLC = tested on: HOP-18 NSCLC
M19-MEL melanoma = tested on: M19-MEL melanoma
CCRF-CEM leukemia = tested on: CCRF-CEM leukemia
SF-539 CNS = tested on: SF-539 CNS
DMS 114 small cell lung = tested on: DMS 114 small cell lung
SW-620 colon = tested on: SW-620 colon
SK-MEL-5 melanoma = tested on: SK-MEL-5 melanoma
OVCAR-8 ovarian = tested on: OVCAR-8 ovarian
SK-MEL-28 melanoma = tested on: SK-MEL-28 melanoma
ACHN renal = tested on: ACHN renal
RXF 393 renal = tested on: RXF 393 renal
SNB-75 CNS = tested on: SNB-75 CNS
SK-MEL-2 melanoma = tested on: SK-MEL-2 melanoma
COLO 205 colon = tested on: COLO 205 colon
MALME-3M melanoma = tested on: MALME-3M melanoma
IGROV1 ovarian = tested on: IGROV1 ovarian
KM20L2 colon = tested on: KM20L2 colon
DMS 273 small cell lung = tested on: DMS 273 small cell lung
SF-268 CNS = tested on: SF-268 CNS
HCT-15 colon = tested on: HCT-15 colon
DLD-1 colon = tested on: DLD-1 colon
UACC-257 melanoma = tested on: UACC-257 melanoma
XF 498 CNS = tested on: XF 498 CNS
LXFL 529 NSCLC = tested on: LXFL 529 NSCLC
EKVX NSCLC = tested on: EKVX NSCLC

Measured: TGI

CC1(C)COC2(OC1)C1=NS(=O)(=O)CC13CCC2C3(C)C (stereo not drawn)
> 100 µM: all assays above
